Test results from ChEMBL document CHEMBL2311511, “Dipeptide cis-cyclo(Leucyl-Tyrosyl) produced by sponge associated Penicillium sp. F37 inhibits biofilm formation of the pathogenic Staphylococcus epidermidis” (Bioorg Med Chem Lett, 2013).
Activity calls are given as the source filed them. The rule behind the calls is not given here.

How the values were obtained:
[1] = tested on: Staphylococcus epidermidis; assay: Inhibition of Staphylococcus epidermidis ATCC 35984 biofilm formation at 0.25 mg/ml; format: functional
[2] = tested on: Staphylococcus epidermidis; assay: Inhibition of Staphylococcus epidermidis ATCC 35984 biofilm formation at 1 mg/ml; format: functional
[3] = tested on: Staphylococcus epidermidis; assay: Toxicity in Staphylococcus epidermidis ATCC 35984 assessed as growth inhibition at 0.25 to 1 mg/ml; format: organism-based; conditions: in vivo
[4] = tested on: Staphylococcus epidermidis; assay: Inhibition of Staphylococcus epidermidis ATCC 35984 biofilm formation at 0.125 mg/ml; format: functional, organism-based
[5] = tested on: Staphylococcus epidermidis; assay: Inhibition of Staphylococcus epidermidis ATCC 35984 biofilm formation at 0.5 mg/ml; format: functional
[6] = tested on: Staphylococcus epidermidis; assay: Inhibition of Staphylococcus epidermidis ATCC 35984 biofilm formation at 1 mg/ml after 24 hrs by scanning electron microscopy; format: functional, organism-based

CC(C)C[C@@H]1NC(=O)[C@H](Cc2ccc(O)cc2)NC1=O
inhibition at 250 µg/mL [1]: 60%
inhibition at 1000 µg/mL [2]: 85%
Activity [3]: Non-toxic
Activity [4]: inactive
inhibition at 500 µg/mL [5]: 65%
inhibition [6]: Active
